Measurements from patent publication US4075206A, “Substituted pyrroloquinoxalinones and diones” (Eli Lilly and Company, priority 1977, dated 1978).

What was measured:
[1] = test system: erythema produced by an ultra-violet light source on guinea pig skin; test: Anti-inflammatory: block of UV-light-induced erythema on guinea pig skin (method of Windner et al.); type: in vivo, albino guinea pigs; conditions: oral; for ED50: Cavia porcellus, dose producing 50 percent inhibition of the erythemic response, groups of four guinea pigs; for Inhibition at 50 mg/kg dose: percent inhibition of erythema at 50 mg/kg where an ED50 was not determined
Experimental: The compounds of this invention are anti-inflammatory and anti-thrombotic agents. […] Int. Pharmacodyn, 116, 261 (1958). In this procedure, albino quinea pigs weighing 225- 300 gms. are shaved on the back and chemically depilated 18 to 20 hours before initiation of the test procedures. Animals in groups of 4 are given predetermined dosages of the drug under test with one group being maintained as a control group. The drug is administered by the oral route as a suspension in 1 percent aqueous sodium carboxymethylcellulose. The control animals receive only the suspending median. After having being given the drug or suspension medium only, each group of animals is exposed to a high-intensity ultra-violet light for a predetermined period of time, the ultra-violet light being placed in contact with the depilated skin area on the animals' back. A gummed paper reinforcement is affixed to the lamp lens to provide an unexposed area of contrast for grading the light-produced erythema.
Beginning one hour after exposure and thereafter at half-hour intervals for another 1.5 hours, a trained observer grades erythema using an arbitraty scoring system based upon the degree of contrast and redness formed. […] The following scoring system is used: […]
______________________________________
Score Appearance of Exposed Area
0 No redness and no contrast
1 Slight redness with a faint
2 Slight to moderate redness
with a distinct outline
3 Marked redness with a distinct
Total scores from each treatment group of four guinea pigs are compared to the control treatment, and the percent inhibition calculated as follows: [formula]
If desired, a dose-response graph can be obtained by plotting dose versus percent inhibition, each point representing the average of one treatment group of four guinea pigs. The dose (ED50) in mg/kg cm.^2) which produced a 50 percent inhibition of the erythemic response for the particular compound tested can then be obtained, either directly or by extrapolation. Table I below summarizes the results obtained from testing representative compounds of the invention by the foregoing method.

[2] = test system: collagen-induced platelet aggregation; test: Platelet aggregation test: collagen-induced platelet aggregation after oral dosing (method of Hermann et al.); type: in vivo, guinea pigs; conditions: Cavia porcellus, 1 h, 2 doses, time zero and 2 hours later, blood 60 minutes after last dose, active = about 50% inhibition of collagen-induced aggregation, N.A. = not active at 100 mg/kg × 2, read-out: P.A. (lowest active dose in the platelet aggregation test)
Experimental: Certain of the compounds of this invention are also platelet aggregation inhibitors and the results of testing for this activity are also included in Table I. The platelet aggregation test used involves the effect of a drug upon collagen-induced platelet aggregation using the method of Hermann et al., Proc. Soc. Exp. Biol. Med. 136, 548 (1972). According to this procedure, 300- 400 g. guinea pigs are used and the compound is administered by the oral route in 2 doses, at time zero and again 2 hours later, at a series of graded dose levels to groups of 4 pigs each. One group is maintained as a control group. Blood is removed by heart puncture 60 minutes after the last dose, and a platelet-rich plasma prepared therefrom. A stock collagen solution is prepared by solubilizing bovine Achilles tendon with acetic acid. The stock solution contains 0.25 percent collagen, has a pH of 2.8 and is kept under refrigeration. Prior to use, 0.4 ml. of 1M aqueous sodium hydroxide is added to a 1 ml. aliquot of the stock solution, followed by further dilutions with saline (1:2 1:4, 1:8, 1:16, 1:32, etc.) A standard collagen challenge was used, 0.05 ml. of 1:45 dilution, to induce platelet aggregation and the aggregation response of the drugged guinea pigs was compared to that of the controls to determine inhibition of aggregation. The lowest active dose in mg./kg. × 2 is then determined, "active" being defined as giving about 50% inhibition of collagen-induced aggregation. (Activity was determined by computor printout with significance at the 95 percent confidence level being attained at about the 50 percent inhibition level). In Table 1, column 1 gives the name of the compound, column 2, the ED50 calculated as set forth above and column 3, the percent inhibition at a 50 mg/kg dose level where an ED50 was not determined and column 4, the lowest active dose in the platelet aggregation test. N. A. indicates "not active" at 100 mg/kg × 2 in this latter test.

CCN1C(=O)CN2C(=O)C(c3ccccc3)c3cccc1c32 (centres unmarked) [1-Ethyl-6-phenyl-1H-pyrrolo[1,2,3-de]quinoxalin-2,5(3H,6H)-dione]
ED50 [1]: 33 mg/kg | minimal effective dose [2]: 100 mg/kg

O=C1CCN2C(=O)C(c3ccccc3)c3cccc(c32)N1 (centres unmarked) [3,4-DIHYDRO-7-PHENYL-1H-PYRROLO[ 1,2,3-ef]-BENZO-[ f]DIAZEPINE-2,6(1H,7H)-DIONE]
ED50 [1]: 12 mg/kg | minimal effective dose [2]: 50 mg/kg

O=C1CN2C(=O)C(c3ccccc3)(c3ccccc3)c3cccc(c32)N1 [6,6-diphenyl-1H-pyrrolo-[1,2,3-de]quinoxalin-2,5 (3H,6H)-dione]
ED50 [1]: 36 mg/kg

O=C1CN2C(=O)C(c3ccc(F)cc3)c3cccc(c32)N1 (centres unmarked) [6-(p-fluoro)phenyl-1H-pyrrolo[1,2,3-de]quinoxalin-2,5 (3H,6H)-dione]
ED50 [1]: 7.7 mg/kg | minimal effective dose [2]: 12.5 mg/kg

O=C1CN2C(=O)C(c3ccccc3)c3c2c(cc2ccccc32)N1 (centres unmarked) [6-phenyl-1H-benzo[g]pyrrolo[1,2,3-de]quinoxalin-2,5(3H,6H)-dione]
Inhibition at 50 mg/kg dose [1]: 42%

O=C1C(c2ccccc2)c2cccc3c2N1CCN3 (centres unmarked) [2,3-dihydro-6-phenyl-1H-pyrrolo[1,2,3-de]quinoxalin-5(6H)-one]
ED50 [1]: 7.9 mg/kg | minimal effective dose [2]: 100 mg/kg

O=C1CN2C(=O)C(c3ccc(Cl)cc3)c3cccc(c32)N1 (centres unmarked) [6-(4-chlorophenyl)-1H-pyrrolo[1,2,3-de]-quinoxalin-2,5(3H,6H)-dione]
Inhibition at 50 mg/kg dose [1]: 48%

O=C1CN2C(=O)C(c3ccccc3)c3cccc(c32)N1 (centres unmarked) [6-phenyl-1H-pyrrolo[1,2,3-de]quinoxalin-2,5(3H,6H)-dione]
ED50 [1]: 0.9 mg/kg | minimal effective dose [2]: 1.56 mg/kg

COc1cc2c3c(c1)C(c1ccccc1)C(=O)N3CC(=O)N2 (centres unmarked) [6-phenyl-8-methoxy-1H-pyrrolo[1,2,3-de]quinoxalin-2,5(3H,6H)-dione]
ED50 [1]: 45 mg/kg | minimal effective dose [2]: 6.25 mg/kg

CCCN1C(=O)CN2C(=O)C(c3ccccc3)c3cccc1c32 (centres unmarked) [1-n-Propyl-6-phenyl-1H-pyrrolo[1,2,3-de]quinoxalin-2,5(3H,6H)-dione]
ED50 [1]: 47.5 mg/kg

Cc1cc2c3c(c1)C(c1ccccc1)C(=O)N3CC(=O)N2 (centres unmarked) [6-phenyl-8-methyl-1H-pyrrolo[1,2,3-de]quinoxalin-2,5(3H,6H)-dione]
Inhibition at 50 mg/kg dose [1]: 51% | minimal effective dose [2]: 3.12 mg/kg

CCC1C(=O)Nc2cccc3c2N1C(=O)C3c1ccccc1 (centres unmarked) [6-phenyl-3-ethyl-1H-pyrrolo[1,2,3-de]quinoxalin-2,5(3H,6H)-dione]
ED50 [1]: 1 mg/kg | minimal effective dose [2]: 50 mg/kg

CC1C(=O)Nc2cccc3c2N1C(=O)C3c1ccccc1 (centres unmarked) [6-phenyl-3-methyl-1H-pyrrolo 1,2,3-de]quinoxalin-2,5(3H,6H)-dione]
ED50 [1]: 2.5 mg/kg | minimal effective dose [2]: 1.56 mg/kg

CN1C(=O)CN2C(=O)C(c3ccccc3)c3cccc1c32 (centres unmarked) [1-Methyl-6-phenyl-1H-pyrrolo 1,2,3-de]quinoxalin-2,5(3H,6H)-dione]
ED50 [1]: 4.4 mg/kg | minimal effective dose [2]: 3.12 mg/kg

O=C1CN2C(=O)C(c3ccccc3)c3cc(Cl)cc(c32)N1 (centres unmarked) [6-phenyl-8-chloro-1H-pyrrolo[1,2,3-de]quinoxalin-2,5(3H,6H)-dione]
Inhibition at 50 mg/kg dose [1]: 50% | minimal effective dose [2]: 100 mg/kg
